# BindingDB's records for doi:10.1021/jm049465g (National Institute On Drug Abuse-Intramural Research Program, 2005)
# Experiment: Inhibition of quinpirole stimulation of mitogenesis at human dopamine D2 receptors expressed in Chinese hamster ovary cells
row,EC50 [nM],Compound
1,162,"O=C(NC/C=C/CN1CCN(c2cccc(Cl)c2Cl)CC1)c1ccc(I)cc1 [N-{4-[4-(2,3-Dichloro-phenyl)-piperazin-1-yl]-but-2-enyl}-4-iodo-benzamide]"
2,61.8,"COc1ccc(C(=O)NC/C=C/CN2CCN(c3cccc(Cl)c3Cl)CC2)cc1 [N-{4-[4-(2,3-Dichloro-phenyl)-piperazin-1-yl]-but-2-enyl}-4-methoxy-benzamide]"
3,13.8,"O=C(NC/C=C/CN1CCN(c2cccc(Cl)c2Cl)CC1)c1ccc([N+](=O)[O-])cc1 [N-{(E)-4-[4-(2,3-Dichloro-phenyl)-piperazin-1-yl]-but-2-enyl}-4-nitro-benzamide]"
